# According to patent publication US7855073B2, “Cells containing a nanopatch sensor in their membrane” (Ben-Gurion University of the Negev Research and Development …, priority 2003, dated 2010):
# Columns and labels:
# cultured neuronal cells = assay: Detection of membrane perturbations, nanopatch-containing neuron cells; assay type: cell-based, rat; details: 50 mM in medium; FIG. 7
# Protocol: Cell cultures were prepared from the Hippocampi of one-day-old rat pups as follows. Tissue was treated for 30 min at 37° C. with 0.25% trypsin (type XI; Sigma), and then gently triturated and the dissociated cells were plated at a concentration of 2×10^5/ml onto poly-D-lysine ([…]; Sigma) and laminin ([…]; Collaborative Research)—coated glass coverslips. Cells were plated in Eagle's minimal essential medium (MEM) containing 10% heat-inactivated fetal bovine serum (HyClone), 2 mM glutamine, and 0.76% glucose. On the following day, the medium was replaced with fresh SF1C medium [Rayport, D. et al. (1992) J. Neurosci. 12, 4264-4280], including B-27 supplements (GIBCO). The cells were grown for up to 12 days in a humid incubator containing 5% CO2/95% air at 37° C. prior to use.
# Cells were incubated with DMPE/DMPG/PDA-1:1:6 (mole ratio) vesicles in TG1 buffer (119 mM NaCl, 5 mM KCl, 30 mM Glucose, 32 mM Sucrose, 20 mM Hepes, pH=7.3) for 1 hour at room temperature. Following the fusion, vesicles were polymerized by UV irradiation at 254 nm for 10 seconds and the unbound vesicles were washed 3 times with TG1 buffer.
# Fluorescent images of the cells were acquired using a Zeiss 200M microscope (Germany) fitted with a CY3 570-650 nm emission range filter (Chroma Technology Corp., Rockingham, Vt.) and CCD cooled camera (PCO). […]
# U937 cells = assay: Detection of membrane perturbations by fluorescence microscopy, nanopatch-containing U937 cells; assay type: cell-based, human
# Protocol: U937 cells were grown and prepared as described in section 1.1 of Example 1, hereinabove. The precursors of the Lipid/PDA constructs (i.e. a mixture of 10,12-tricosadiynoic acid, PE and PG at a molar ratio of 8:1:1) were prepared and introduced into the cells in accordance with the methods described in sections 1.2 and 1.3 of Example 1.
# Separate aliquots of cells containing the lipid/PDA constructs were then subjected to the membrane-perturbing treatments described below.
# Transmission differential interference contrast (DIC) and fluorescence images of the cells were acquired on a laser scanning confocal microscope (Olympus IX70) with an PlApo 60× objective using oil (NA 1.4). Excitation was at 488 nm using argon laser source. Emitted light was collected through a LP 560 nm filter.
# Erythrocyte "ghosts" = assay: Detection of membrane perturbations, nanopatch-containing erythrocyte ghosts; assay type: cell-based; details: ghosts labeled with DMPC/PDA liposomes; FIG. 11
# Protocol: Erythrocyte “ghosts” (i.e. emptied cells) were labeled with DMPC/PDA liposomes, following which the nanopatch-containing cells were treated with the membrane active compound melittin.
# CHO cells = assay: Detection of membrane perturbations, nanopatch-containing CHO cells; assay type: cell-based; details: FIG. 10
# Protocol: PDA nanopatch-containing CHO cells were prepared as described in Example 1, hereinabove, and treated with propranolol, a membrane-active pharmaceutical compound.
smiles,measurement,setting,value
[Ca+2] [calcium ions],Fluorescent emission from the red phase of the polydiacetylene polymer,cultured neuronal cells,white fluorescent light emitted by the cells
CCN(CC)CC(=O)Nc1c(C)cccc1C [lidocaine],Fluorescent emission of the lipid/PDA constructs (membrane perturbation),"U937 cells; 5 μM, 25° C., 5 to 15 minutes, FIG. 5",characteristic fluorescent emission
same,Fluorescent emission of the lipid/PDA constructs (membrane perturbation),"U937 cells; 1 mM, FIG. 8 panel B",characteristic fluorescent emission associated with perturbation of the PDA construct is readily observed
CC[C@H](C)[C@H](NC(=O)CN)C(=O)NCC(=O)N[C@@H](C)C(=O)N[C@H](C(=O)N[C@@H](CC(C)C)C(=O)N[C@@H](CCCCN)C(=O)N[C@H](C(=O)N[C@@H](CC(C)C)C(=O)N[C@H](C(=O)N[C@H](C(=O)NCC(=O)N[C@@H](CC(C)C)C(=O)N1CCC[C@H]1C(=O)N[C@@H](C)C(=O)N[C@@H](CC(C)C)C(=O)N[C@H](C(=O)N[C@@H](CO)C(=O)N[C@@H](Cc1c[nH]c2ccccc12)C(=O)N[C@H](C(=O)N[C@@H](CCCCN)C(=O)N[C@@H](CCCNC(=N)N)C(=O)N[C@@H](CCCCN)C(=O)N[C@@H](CCCNC(=N)N)C(=O)N[C@@H](CCC(N)=O)C(=O)N[C@@H](CCC(N)=O)C(N)=O)[C@@H](C)CC)[C@@H](C)CC)[C@@H](C)O)[C@@H](C)O)C(C)C)C(C)C [melittin],Fluorescent emission of the lipid/PDA constructs (membrane perturbation),"U937 cells; 5 μM and 50 μM, FIG. 8 panels C, D",results in the characteristic fluorescent emission
same,Dependence of fluorescent emission on dose,"U937 cells; 5 μM versus 50 μM, FIG. 8 panels C, D",dose-dependent
same,Fluorescence from transformed red PDA,"Erythrocyte ""ghosts""",fluorescence spots
CC(C)NCC(O)COc1cccc2ccccc12 (centres unmarked) [propranolol],Fluorescent emission associated with perturbation of the PDA-lipid constructs,CHO cells,characteristic fluorescent emission associated with perturbation of the PDA-lipid constructs embedded in the cell membrane is readily observed
OC[C@H]1O[C@@](CO)(O[C@H]2O[C@H](CO)[C@@H](O)[C@H](O)[C@H]2O)[C@@H](O)[C@@H]1O [sucrose],Fluorescent emission of the lipid/PDA constructs (membrane perturbation),"U937 cells; 1 M, 25° C., 5 to 15 minutes, FIG. 3",fluorescent emission
